In the NIST ThermoML archive (doi:10.1016/j.tca.2017.08.004):

What was measured:
[1] = Molar enthalpy of transition or fusion; conditions: Crystal; DSC
[2] = Crystal; for vapor or sublimation pressure: Transpiration method

Fc1ccc(N=C2[Se]CC3CCCN2C3)cc1 (stereo unspecified) [N-(4-fluorophenyl)-3-selena-1-azabicyclo[3.3.1]nonan-2-imine]
Conditions	Molar enthalpy of transition or fusion [kcal/mol]
[1]	5.23

[2]
Conditions	Normal melting temperature [°C]	vapor or sublimation pressure [kPa]
344.15 K	–	6.71e-05
346.15 K	–	8.23e-05
348.15 K	–	0.0001009
350.15 K	–	0.0001254
352.15 K	–	0.0001539
354.15 K	–	0.0001821
357.15 K	–	0.0002441
359.15 K	–	0.0002956
360.15 K	–	0.0003273
361.15 K	–	0.00036
362.15 K	–	0.0003964
363.15 K	–	0.0004316
364.15 K	–	0.0004719
365.15 K	–	0.0005306
DTA	103.1	–

CC(C)c1ccc(N=C2SCC3CCCN2C3)cc1 (stereo unspecified)
[2]
Conditions	vapor or sublimation pressure [kPa]
308.15 K	7.9e-06
310.15 K	1.01e-05
311.15 K	1.19e-05
313.15 K	1.61e-05
314.15 K	1.86e-05
315.15 K	2.13e-05
316.15 K	2.3e-05
317.15 K	2.74e-05
318.15 K	3.07e-05
319.15 K	3.29e-05
320.15 K	3.89e-05
322.15 K	4.8e-05
323.15 K	5.57e-05

N#Cc1ccc(N=C2SCC3CCCN2C3)cc1 (stereo unspecified)
[2]
Conditions	vapor or sublimation pressure [kPa]
341.15 K	4.41e-05
343.15 K	6.35e-05
345.15 K	8.28e-05
347.15 K	0.0001196
349.15 K	0.0001553
351.15 K	0.0002074
353.15 K	0.0002772
354.15 K	0.0002989
356.15 K	0.0004234
358.15 K	0.000541
360.15 K	0.0007001
361.15 K	0.0008286

CC(=O)c1ccc(N=C2SCC3CCCN2C3)cc1 (stereo unspecified)
[2]
Conditions	vapor or sublimation pressure [kPa]
370.15 K	1.72e-05
372.15 K	2.17e-05
373.15 K	2.52e-05
374.15 K	2.65e-05
375.15 K	3.08e-05
377.15 K	3.73e-05
379.15 K	4.55e-05
381.15 K	5.67e-05
383.15 K	6.72e-05
385.15 K	8.05e-05
387.15 K	9.63e-05
389.15 K	0.0001225
390.15 K	0.0001287
391.15 K	0.0001437
392.15 K	0.0001637
